Patent publication US9546164B2 (GENENTECH, INC., priority 2013, dated 2017)

Molecular target: hNav1.7 (Homo sapiens (Human), UniProt Q15858)
Test: Tritiated sulfonamide competitive binding to membranes from cells expressing hNav1.7 and the β1 subunit;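 also: Filter-bound radioactivity counted by liquid scintillation, nonspecific binding defined with excess unlabelled ligand, IC50 fitted to percent inhibition of specific binding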
Conditions: read-out: Ligand Binding Assay; 100 pM [3H]compound, membranes with hNav1.7 and β1 subunit, 18 h, room temperature

Sequence of hNav1.7 (Q15858 other isoform, or with tags, fused parts or gaps): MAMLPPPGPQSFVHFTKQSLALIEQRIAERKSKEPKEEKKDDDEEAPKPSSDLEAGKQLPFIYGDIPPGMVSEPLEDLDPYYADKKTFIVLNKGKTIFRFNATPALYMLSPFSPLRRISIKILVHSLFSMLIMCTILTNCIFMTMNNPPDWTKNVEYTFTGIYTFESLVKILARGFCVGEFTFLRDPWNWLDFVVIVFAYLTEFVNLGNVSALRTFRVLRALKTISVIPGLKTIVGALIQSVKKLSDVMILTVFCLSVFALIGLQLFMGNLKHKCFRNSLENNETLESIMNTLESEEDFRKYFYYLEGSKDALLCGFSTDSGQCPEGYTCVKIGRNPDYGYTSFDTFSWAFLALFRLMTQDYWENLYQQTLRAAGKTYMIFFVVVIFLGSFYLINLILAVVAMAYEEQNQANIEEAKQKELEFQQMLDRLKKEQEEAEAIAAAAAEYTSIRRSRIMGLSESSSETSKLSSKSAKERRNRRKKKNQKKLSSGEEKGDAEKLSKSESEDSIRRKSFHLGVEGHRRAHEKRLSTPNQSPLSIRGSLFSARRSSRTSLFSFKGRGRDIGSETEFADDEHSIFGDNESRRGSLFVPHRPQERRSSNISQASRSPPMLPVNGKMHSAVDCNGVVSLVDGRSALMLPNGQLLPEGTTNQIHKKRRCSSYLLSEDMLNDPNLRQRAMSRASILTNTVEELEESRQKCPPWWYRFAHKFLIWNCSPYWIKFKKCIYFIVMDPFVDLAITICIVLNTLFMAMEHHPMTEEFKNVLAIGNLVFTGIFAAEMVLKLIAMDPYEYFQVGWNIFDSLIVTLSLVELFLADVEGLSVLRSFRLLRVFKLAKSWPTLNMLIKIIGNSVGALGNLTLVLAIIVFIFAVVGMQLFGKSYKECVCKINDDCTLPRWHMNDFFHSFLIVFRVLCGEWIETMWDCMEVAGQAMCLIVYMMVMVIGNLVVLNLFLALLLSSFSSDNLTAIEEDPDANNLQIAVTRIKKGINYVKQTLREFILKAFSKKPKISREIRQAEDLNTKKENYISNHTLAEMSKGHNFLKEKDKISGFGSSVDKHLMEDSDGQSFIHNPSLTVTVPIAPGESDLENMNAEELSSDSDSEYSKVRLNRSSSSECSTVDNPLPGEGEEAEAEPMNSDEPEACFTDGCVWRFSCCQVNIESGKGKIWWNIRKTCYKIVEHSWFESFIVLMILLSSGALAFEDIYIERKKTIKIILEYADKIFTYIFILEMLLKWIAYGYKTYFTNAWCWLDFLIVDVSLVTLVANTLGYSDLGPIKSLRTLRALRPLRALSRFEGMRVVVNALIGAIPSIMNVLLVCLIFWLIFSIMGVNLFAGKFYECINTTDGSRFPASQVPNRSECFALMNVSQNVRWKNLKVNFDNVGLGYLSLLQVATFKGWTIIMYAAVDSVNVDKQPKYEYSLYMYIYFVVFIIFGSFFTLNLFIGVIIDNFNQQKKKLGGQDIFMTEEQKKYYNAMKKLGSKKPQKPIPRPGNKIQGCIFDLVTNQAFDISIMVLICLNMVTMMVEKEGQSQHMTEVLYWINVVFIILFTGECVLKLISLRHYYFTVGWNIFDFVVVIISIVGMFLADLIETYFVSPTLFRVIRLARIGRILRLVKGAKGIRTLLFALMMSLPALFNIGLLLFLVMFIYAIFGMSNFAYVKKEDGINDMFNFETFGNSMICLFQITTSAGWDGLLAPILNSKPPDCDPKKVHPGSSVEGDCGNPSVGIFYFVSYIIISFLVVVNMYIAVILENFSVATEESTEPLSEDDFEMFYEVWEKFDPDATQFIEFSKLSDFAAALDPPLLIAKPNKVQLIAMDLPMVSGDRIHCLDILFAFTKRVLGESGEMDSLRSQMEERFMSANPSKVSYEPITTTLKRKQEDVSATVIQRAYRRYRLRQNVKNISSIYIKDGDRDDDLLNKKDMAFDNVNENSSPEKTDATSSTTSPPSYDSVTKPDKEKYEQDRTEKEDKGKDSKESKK
Sequence of hNav1.7 (Q07699 19-218 partner): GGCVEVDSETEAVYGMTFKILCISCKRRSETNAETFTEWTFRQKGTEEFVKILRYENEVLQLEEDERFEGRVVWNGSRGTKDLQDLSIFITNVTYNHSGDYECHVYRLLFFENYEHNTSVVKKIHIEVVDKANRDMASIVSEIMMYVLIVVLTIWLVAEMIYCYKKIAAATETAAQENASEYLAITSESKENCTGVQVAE

O=C(NS(=O)(=O)C1CC1)c1cc(C2CC2)c(OCC2CCN(C3(c4cc(Cl)cc(Cl)c4)COC3)CC2)cc1F [Example 175, 5-Cyclopropyl-N-(cyclopropylsulfonyl)-4-((1-(3-(3,5-dichlorophenyl)oxetan-3-yl)piperidin-4-yl)methoxy)-2-fluorobenzamide]
IC50: 5.2 nM

O=C(NS(=O)(=O)N1CCC1)c1cc(C2CC2)c(OCC2CCN(C3(c4cc(Cl)cc(Cl)c4)COC3)CC2)cc1F [Example 176]
IC50: 9.1 nM

CCS(=O)(=O)NC(=O)c1cc(C2CC2)c(OCC2CCN(C3(c4cc(Cl)cc(Cl)c4)COC3)CC2)cc1F [Example 177, 5-Cyclopropyl-4-((1-(3-(3,5-dichlorophenyl)oxetan-3-yl)piperidin-4-yl)methoxy)-N-(ethylsulfonyl)-2-fluorobenzamide]
IC50: 8.3 nM

CC1(COc2cc(F)c(C(=O)NS(C)(=O)=O)cc2C2CC2)CCN(C2(c3cc(Cl)cc(Cl)c3)COC2)CC1 [Example 178, 5-Cyclopropyl-4-((1-(3-(3,5-dichlorophenyl)oxetan-3-yl)-4-methylpiperidin-4-yl)methoxy)-2-fluoro-N-(methylsulfonyl)benzamide]
IC50: 7.6 nM

CC(C)N(C(=O)CN1CCC[C@@H](Oc2cc(F)c(C(=O)NS(C)(=O)=O)cc2C2CC2)C1)C(C)C [Example 179]
IC50: 1800 nM

CC(C)N(C(=O)CN1CCC(COc2cc(F)c(C(=O)NS(C)(=O)=O)cc2C2CC2)CC1)C(C)C [Example 180, 5-Cyclopropyl-4-((1-(2-(diisopropylamino)-2-oxoethyl)piperidin-4-yl)methoxy)-2-fluoro-N-(methylsulfonyl)benzamide]
IC50: 9900 nM

COc1ccc(CN2CCC(COc3cc(F)c(C(=O)NS(C)(=O)=O)cc3C3CC3)CC2)cc1Cl [Example 183, 4-((1-(3-Chloro-4-methoxybenzyl)piperidin-4-yl)methyoxy)-5-cyclopropyl-2-fluoro-N-(methylsulfonyl)benzamide]
IC50: 47 nM

CCS(=O)(=O)NC(=O)c1cc(C2CC2)c(OCC2CCN(Cc3cc(Cl)cc(Cl)c3)CC2)cc1F [Example 184, 5-Cyclopropyl-4-((1-(3,5-dichlorobenzyl)piperidin-4-yl)methoxy)-N-(ethylsulfonyl)-2-fluorobenzamide]
IC50: 5.1 nM

CS(=O)(=O)NC(=O)c1cc(C2CC2)c(OCC2CCN(Cc3ccc(F)c(C(F)(F)F)c3)CC2)cc1F [Example 189, 5-Cyclopropyl-2-fluoro-4-((1-(4-fluoro-3-(trifluoromethyl)benzyl)piperidin-4-yl)methoxy)-N-(methylsulfonyl)benzamide]
IC50: 16 nM

CS(=O)(=O)NC(=O)c1cc(C2CC2)c(OCC2CCN(Cc3cnc(OCC(F)(F)F)c(Cl)c3)CC2)cc1F [Example 190, 4-((1-((5-Chloro-6-(2,2,2-trifluoroethoxy)pyridin-3-yl)methyl)piperidin-4-yl)methoxy)-5-cyclopropyl-2-fluoro-N-(methylsulfonyl)benzamide]
IC50: 56 nM

CS(=O)(=O)NC(=O)c1cc(C2CC2)c(OCC2CCN(Cc3ccccc3Cl)CC2)cc1F [Example 191, 4-((1-(2-Chlorobenzyl)piperidin-4-yl)methoxy)-5-cyclopropyl-2-fluoro-N-(methylsulfonyl)benzamide]
IC50: 32 nM

CS(=O)(=O)NC(=O)c1cc(C2CC2)c(OCC2CCN(CC(F)(F)C(F)F)CC2)cc1F [Example 192, 5-Cyclopropyl-2-fluoro-N-(methylsulfonyl)-4-((1-(2,2,3,3-tetrafluoropropyl)piperidin-4-yl)methoxy)benzamide]
IC50: 34 nM

O=C(NS(=O)(=O)C1CC1)c1cc(C2CC2)c(OCC2CCN(CCC(F)(F)F)CC2)cc1F [Example 193, 5-Cyclopropyl-N-(cyclopropylsulfonyl)-2-fluoro-4-((1-(3,3,3-trifluoropropyl)piperidin-4-yl)methoxy)benzamide]
IC50: 52 nM

O=C(NS(=O)(=O)N1CCC1)c1cc(C2CC2)c(OCC2CCN(CCC(F)(F)F)CC2)cc1F [Example 194, N-(azetidin-1-ylsulfonyl)-5-cyclopropyl-2-fluoro-4-((1-(3,3,3-trifluoropropyl)piperidin-4-yl)methoxy)benzamide]
IC50: 180 nM

CS(=O)(=O)NC(=O)c1cc(C2CC2)c(OCC2CCN(C(=O)c3cccc(Cl)c3)CC2)cc1F [Example 195, 4-((1-(3-Chlorobenzoyl)piperidin-4-yl)methoxy)-5-cyclopropyl-2-fluoro-N-(methylsulfonyl)benzamide]
IC50: 350 nM

O=C(NS(=O)(=O)C1CC1)c1cc(C2CC2)c(OCC2CCN(C(=O)c3cccc(Cl)c3)CC2)cc1F [Example 196, 4-((1-(3-Chlorobenzoyl)piperidin-4-yl)methoxy)-5-cyclopropyl-N-(cyclopropylsulfonyl)-2-fluorobenzamide]
IC50: 43 nM

CS(=O)(=O)NC(=O)c1cc(C2CC2)c(OCC2CCN(C(=O)c3ccccc3)CC2)cc1F [Example 197, 4-((1-Benzoylpiperidin-4-yl)methoxy)-5-cyclopropyl-2-fluoro-N-(methylsulfonyl)benzamide]
IC50: 3200 nM

O=C(NS(=O)(=O)C1CC1)c1cc(C2CC2)c(OCC2CCN(C(=O)c3ccccc3)CC2)cc1F [Example 198, 4-((1-Benzoylpiperidin-4-yl)methoxy)-5-cyclopropyl-N-(cyclopropylsulfonyl)-2-fluorobenzamide]
IC50: 550 nM

CS(=O)(=O)NC(=O)c1cc(C2CC2)c(OCC2CCN([C@@H]3c4ccccc4C[C@@H]3O)CC2)cc1F [Example 199, 5-Cyclopropyl-2-fluoro-4-((1-((1R,2S)-2-hydroxy-2,3-dihydro-1H-inden-1-yl)piperidin-4-yl)methoxy)-N-(methylsulfonyl)benzamide]
IC50: 1400 nM

CS(=O)(=O)NC(=O)c1cc(C2CC2)c(OCC2CCN([C@@H]3c4ccccc4C[C@H]3O)CC2)cc1F [Example 200, 5-Cyclopropyl-2-fluoro-4-((1-((1R,2R)-2-hydroxy-2,3-dihydro-1H-inden-1-yl)piperidin-4-yl)methoxy)-N-(methylsulfonyl)benzamide]
IC50: 9400 nM

CCS(=O)(=O)NC(=O)c1cc(C2CC2)c(OCC2CCN(C(C)(C)c3cc(Cl)cc(Cl)c3)CC2)cc1F [Example 210, 5-Cyclopropyl-4-((1-(2-(3,5-dichlorophenyl)propan-2-yl)piperidin-4-yl)methoxy)-N-(ethylsulfonyl)-2-fluorobenzamide]
IC50: 1.9 nM

CCS(=O)(=O)NC(=O)c1cc(C2CC2)c(OCC2CCN(Cc3ccc(Cl)cc3Cl)CC2)cc1F [Example 213, 5-cyclopropyl-4-((1-(2,4-dichlorobenzyl)piperidin-4-yl)methoxy)-N-(ethylsulfonyl)-2-fluorobenzamide]
IC50: 2.5 nM

CCS(=O)(=O)NC(=O)c1cc(C2CC2)c(OCC2CCN(Cc3cc(Cl)cc(C(F)(F)F)c3)CC2)cc1F [Example 216, 4-((1-(3-Chloro-5-(trifluoromethyl)benzyl)piperidin-4-yl)methoxy)-5-cyclopropyl-N-(ethylsulfonyl)-2-fluorobenzamide]
IC50: 5 nM

CS(=O)(=O)NC(=O)c1cc(C2CC2)c(OCC2CCN(Cc3ccc(C(F)(F)F)c(Cl)c3)CC2)cc1F [Example 220, 4-((1-(3-Chloro-4-(trifluoromethyl)benzyl)piperidin-4-yl)methoxy)-5-cyclopropyl-2-fluoro-N-(methylsulfonyl)benzamide]
IC50: 17 nM

CS(=O)(=O)NC(=O)c1cc(C2CC2)c(O[C@@H]2CCCN(C(=O)c3cc(Cl)cc(Cl)c3)C2)cc1F [Example 221, (R)-5-cyclopropyl-4-((1-(3,5-dichlorobenzoyl)piperidin-3-yl)oxy)-2-fluoro-N-(methylsulfonyl)benzamide]
IC50: 1800 nM

COC[C@@H](c1ccccc1)N1CCC(COc2cc(F)c(C(=O)NS(C)(=O)=O)cc2C2CC2)CC1 [Example 222, (R)-5-cyclopropyl-2-fluoro-4-((1-(2-methoxy-1-phenylethyl)piperidin-4-yl)methoxy)-N-(methylsulfonyl)benzamide]
IC50: 160 nM

COC[C@H](c1ccccc1)N1CCC(COc2cc(F)c(C(=O)NS(C)(=O)=O)cc2C2CC2)CC1 [Example 223, (S)-5-cyclopropyl-2-fluoro-4-((1-(2-methoxy-1-phenylethyl)piperidin-4-yl)methoxy)-N-(methylsulfonyl)benzamide]
IC50: 250 nM

CCS(=O)(=O)NC(=O)c1cc(C2CC2)c(OCC2CCN([C@@H](c3cc(Cl)cc(Cl)c3)C(F)F)CC2)cc1F [Example 226, (S)-5-cyclopropyl-4-((1-(1-(3,5-dichlorophenyl)-2,2-difluoroethyl)piperidin-4-yl)methoxy)-N-(ethylsulfonyl)-2-fluorobenzamide]
IC50: 12 nM

CCS(=O)(=O)NC(=O)c1cc(C2CC2)c(OCC2CCN([C@H](c3cc(Cl)cc(Cl)c3)C(F)F)CC2)cc1F [Example 227, (R)-5-cyclopropyl-4-((1-(1-(3,5-dichlorophenyl)-2,2-difluoroethyl)piperidin-4-yl)methoxy)-N-(ethylsulfonyl)-2-fluorobenzamide]
IC50: 8.1 nM

CS(=O)(=O)NC(=O)c1cc(C2CC2)c(OCC2CCN(Cc3ccc(Cl)c(C(F)(F)F)c3)CC2)cc1F [Example 229, 4-((1-(4-Chloro-3-(trifluoromethyl)benzyl)piperidin-4-yl)methoxy)-5-cyclopropyl-2-fluoro-N-(methylsulfonyl)benzamide]
IC50: 7.3 nM

CS(=O)(=O)NC(=O)c1cc(C2CC2)c(OCC2CCN(C(=O)c3ccc(Cl)c(Cl)c3)CC2)cc1F [Example 232, 5-Cyclopropyl-4-((1-(3,4-dichlorobenzoyl)piperidin-4-yl)methoxy)-2-fluoro-N-(methylsulfonyl)benzamide]
IC50: 64 nM

O=C(NS(=O)(=O)C1CC1)c1cc(C2CC2)c(OCC2CCN(C(=O)c3ccc(Cl)c(Cl)c3)CC2)cc1F [Example 233, 5-Cyclopropyl-N-(cyclopropylsulfonyl)-4-((1-(3,4-dichlorobenzoyl)piperidin-4-yl)methoxy)-2-fluorobenzamide]
IC50: 31 nM

C[C@@H](c1ccc(Cl)cc1Cl)N1CCC(COc2cc(F)c(C(=O)NS(C)(=O)=O)cc2C2CC2)CC1 [Example 238, (S)-5-cyclopropyl-4-((1-(1-(2,4-dichlorophenyl)ethyl)piperidin-4-yl)methoxy)-2-fluoro-N-(methylsulfonyl)benzamide]
IC50: 2.2 nM
